We go through five compounds from US8629283B2, “Compounds that modulate negative-sense, single-stranded RNA virus replication and uses thereof” (Icahn School of Medicine at Mount Sinai, priority 2008, dated 2014).

The subject of data set [1] is influenza A/Moscow/10/99 virus. It counts as cell-based.
For data set [2], the system named is influenza B/Yamagata/88 virus. It counts as cell-based.
Data set [3] deals with influenza A/WSN/33 virus.
Data set [4] has as its system H5N1/PR8 virus. It counts as cell-based, influenza A virus.
In data set [5] the test system is influenza A/Wyoming/03/2003 virus. Type of data set: cell-based.
In data set [6] the test system is A549 cells. The note with it: human.
Data set [7] can be described thus: in vitro. The note with it: mouse.
The nature of data set [8]: in vitro. The note with it: human.
Data set [9] has as its system host cell replication machinery.
Data set [10] relates to influenza A virus (FluA).
Data set [11] deals with influenza virus. It counts as cell-based.
A short description of data set [12]: in vitro. The note with it: human. The source holds these as a separate data set.
A short description of data set [13]: in vitro. The note with it: dog.
Data set [14] concerns influenza A virus (FluA). Put plainly: microbe, parasite or virus in culture.
The test system of data set [15] is influenza A virus (FluA). In words: in vitro. The note with it: human.
Data set [16] addresses influenza viral RNA polymerase (Influenza A virus, UniProt P03427+P03430+P15659). It counts as cell-based.
The subject of data set [17] is Newcastle disease virus (NDV/B1). It counts as cell-based.
The subject of data set [18] is vesicular stomatitis virus (VSV). It counts as cell-based.
In data set [19] the test system is influenza virus WSN. Type of data set: cell-based, influenza A virus.
Data set [20] concerns VSV. It counts as cell-based, vesicular stomatitis virus.
In data set [21] the test system is retrovirus MLV. It counts as cell-based.
The test system of data set [22] is influenza A/WSN/33 virus. Type of data set: cell-based.
Data set [23] concerns caspase-3. The note with it: human, 6 h.

Where two headings read alike, the source gives them in different places. Marks after values point to notes of the source that are not given here. Where only a bound is given, the exact number is not on record here.

Regarding `NC(=NC(=O)c1nc(Cl)c(N)nc1N)NCc1ccc(Cl)cc1Cl` [2′,4′-dichlorobenzamil], the “maximum viral titer compared to untreated cells” value in [1] is listed as “significant increase”. In addition, the “increase of viral titer compared to untreated cells” value in data set [2] turned out to be 4 fold. Also, in [3], the “increase in viral titers in Vero cells” value came out at 11 fold, the “increase of viral titer compared to untreated control” value is 10^3 fold and the “influenza virus growth versus untreated control” value is recorded as “boost influenza virus replication”. For the same compound, the “increase of viral titer compared to untreated cells” value in [4] is recorded as about 20 fold. The “maximum viral titer compared to untreated cells” value in [5] is given as “significant increase”.
By IC50 is commonly meant the concentration at which inhibition is half-maximal. In the case of `Cc1[nH]c2ccc(-c3nnc(SCC(=O)N4CCCC4)o3)cc2c1C` [A3, 2-(5-(2,3-dimethyl-1H-indol-5-yl)-1,3,4-oxadiazol-2-ylthio)-1-(pyrrolidin-1-yl)ethanone], in data set [2], the “inhibition of FluB (A549)” value is 94% (A549)* and the “inhibition of growth of influenza B virus” value is on record as “about 1.5 logs”. Also, the “CC10 (A549), concentration of 10% cytotoxicity” value in data set [6] worked out at 38000 nM. The compound further showed a CC50 in data set [7] of over 100000 nM. The compound also came in with a CC50 in data set [8] of 108000 nM. Besides, the “effect on overall host cell replication machinery (renilla luciferase control plasmid)” value in [9] is on record as “not affected”. Also, in data set [10], the “Inhibition of FluA (Table 5)” value was 99.2%*, the “inhibition of FluA (A549)” value was found to be 97%, the “inhibition of FluA (HTBE)” value is listed as 99.99% and the “inhibition of FluA (MDCK)” value is recorded as about 99.6%. Besides, in [10], the “inhibition of FluA (MEF)” value is recorded as about 91.2% and the “SI (MDCK)” value is reported as over 122. Besides, in data set [11], the “effect on entry of influenza virus” value was “did not inhibit viral entry”. This compound gave a CC50 at 24 h in data set [12] of 268000 nM. Moreover, in data set [13], the CC50 is over 100000 nM. Further, the IC50 in [14] (A549, read-out: IC50 (A549)) turned out to be 540 nM. The IC50 in data set [14] (MDCK, read-out: IC50 (MDCK)) was 820 nM. Besides, the IC50 in data set [14] (MEF, read-out: IC50 (MEF)) worked out at 3600 nM. In addition, the IC50 in data set [14] (read-out: IC50 (HTBE)) is 42 nM. For the same compound, the IC50 in [14] (read-out: IC50 in HTBE cells) is 42 nM. Besides, the selectivity ratio in [15] stood at 496. The “inhibition of viral RNA polymerase activity” value in [16] was “up to 99%”.
Consider `CN(c1nc(-c2ccc(Br)cc2)cs1)C1CCS(=O)(=O)C1` (stereo not drawn) [A35, 4-(4-bromophenyl)-N-methyl-N-(tetrahydro-1,1-dioxido-3-thienyl)-2-thiazolamine], for which, in [2], the “inhibition of FluB (A549)” value is given as 63% (A549)* and the “inhibition of influenza B virus” value is on record as “less significant inhibition”. Also, the “CC10 (A549), concentration of 10% cytotoxicity” value in data set [6] is 11200 nM. This compound also had a CC50 in [7] of 96600 nM. In addition, the “inhibition of NDV” value in [17] is “less significant inhibition”. Also, the “inhibition of VSV” value in data set [18] is “less significant inhibition”. Moreover, in [10], the “Inhibition of FluA (Table 5)” value came out at 99.99%*, the “inhibition of FluA (293T)” value is listed as about 50%, the “inhibition of FluA (A549)” value is given as 99.988% and the “inhibition of FluA (Detroit)” value was about 95.6%. In data set [10], the “inhibition of FluA (HTBE)” value was 99.98%, the “inhibition of FluA (HUH7.5)” value is about 98.4%, the “inhibition of FluA (MDCK)” value is about 75% and the “inhibition of FluA (MEF)” value is about 99.6%. For the same compound, in [10], the “inhibition of influenza virus replication” value is listed as “up to 4 logs” and the “SI (MDCK)” value is 7. Further, the “inhibition of viral replication” value in [19] is 4 logs. For the same compound, the “effect on entry of influenza virus” value in data set [11] is “did not affect the entry step”. In [13], this compound registered a CC50 of 26800 nM. Further, the IC50 in data set [14] (A549, read-out: IC50 (A549)) stood at 2100 nM. Further, the IC50 in [14] (HEK-293T, read-out: IC50 (293T)) is 6200 nM. Besides, in [14] (Huh7.5, read-out: IC50 (HUH7.5)), the IC50 was 3970 nM. Also, in data set [14] (MDCK, read-out: IC50 (MDCK)), the IC50 turned out to be 3910 nM. Besides, the IC50 in data set [14] (MEF, read-out: IC50 (MEF)) worked out at 2640 nM. The IC50 in data set [14] (read-out: IC50 (Detroit)) was determined as 2070 nM. For the same compound, the IC50 in data set [14] (read-out: IC50 (HTBE)) was 1980 nM. In addition, the selectivity ratio in data set [15] was determined as 53.
As to `COc1cc2c(O)c3c(c(-c4ccc5c(c4)OCO5)c2cc1OC)C(=O)OC3` [C2, 9-(benzo[d][1,3]dioxol-5-yl)-4-hydroxy-6,7-dimethoxynaphtho[2,3-c]furan-1(3H)-one], the “inhibition of FluB (A549)” value in [2] is recorded as 63% (A549)*. The CC50 in data set [7] turned out to be 4850 nM. Besides, the “effect on entry of VSV” value in data set [20] is recorded as “inhibited”. Moreover, the “effect on entry of MLV” value in data set [21] was “unaffected”. Also, in data set [10], the “inhibition of FluA (A549)” value is 94.7%, the “inhibition of FluA (HTBE)” value is recorded as 99.96%, the “inhibition of FluA (MDCK)” value is given as about 87.5% and the “inhibition of FluA (MEF)” value is given as about 96%. Further, in [10], the “inhibition of influenza virus replication” value was “up to 3.5 logs” and the “SI (MDCK)” value was 4. For the same compound, the “effect on course of infection” value in data set [19] is given as “did not affect the course of infection”. Besides, the “effect on entry of influenza virus” value in [11] is recorded as “inhibited”. The same compound had a CC50 in data set [13] of 670 nM. Further, the IC50 in data set [14] (A549, read-out: IC50 (A549)) came out at 1600 nM. Besides, in data set [14] (MDCK, read-out: IC50 (MDCK)), the IC50 was 150 nM. Further, the IC50 in data set [14] (MEF, read-out: IC50 (MEF)) came out at 340 nM. Besides, the IC50 in data set [14] (read-out: IC50 (HTBE)) was 59 nM. Moreover, the IC50 in data set [14] (read-out: IC50 in HTBE cells) was 59 nM. Further, in data set [15], the selectivity ratio was 82.
For `NC(=Nc1ccccc1)NC(=O)c1nc(Cl)c(N)nc1N` [phenamil], the “HTS result (luciferase signal of influenza mini-genome reporter)” value in data set [22] is listed as “increased luciferase signals”. Besides, in [3], the “increase of viral titer compared to untreated control” value is 16 fold. The “induction of apoptosis (caspase-3 activity, fluorescence vs untreated cells)” value in data set [23] is recorded as 1.3 fold.
